Entries after “also recorded” stand apart in the source; their conditions may differ. Where two headings read alike, the source gives them in different places.
What was measured:
[1] = test system: healthy, drug-free male volunteers; assay: Pupillometry (pupillary miosis) in healthy volunteers; format: in vivo, human; conditions: 3, 10, 30, 60 mg single oral dose
Description: Pulse oximetry and capnography data were collected continuously using a GE Carescape B650 monitoring system from 2 hours prior to dosing and until six hours after dosing, and thereafter at 12, 24, 48 and 72 hours post-dosing. […] Pupillary miosis was assessed by pupillometry.
Summary statistics (means, standard deviations, and coefficients of variation) were determined for each dose group for safety laboratory test data, ECG and pharmacokinetic parameters, and pharmacodynamic variables. Categorical variables were analysed using counts and percentages. Dose-proportionality of AUC and Cmax was assessed using linear regression. The effect of dose on pharmacodynamic parameter values over time was assessed using two-factor analysis of variance (ANOVA). Pairwise comparisons (with Tukey-Kramer adjustment) between each dose group to the placebo were conducted at each time point using the least squares estimates obtained from the ANOVA, using SAS Proc Mixed (SAS ver 6.0).

dogs = assay: Single dose (acute oral) toxicity/TK study in dogs; format: in vivo, dog
[2] = Single dose (acute oral) toxicity/TK study in dogs; format: in vivo, dog; conditions: dog, in vivo; single oral dose
[3] = Plasma toxicokinetics in dogs, fourteen day repeat dose; format: in vivo, dog
Description: Noribogaine HCl was administered to groups of 4 male and 4 female dogs by single oral gavage daily for 14 days at doses of 0, 0.5, 1.0 and 5.0 mg/kg/day. An additional group of 4 male and 4 female dogs received either the vehicle control or 5.0 mg/kg/day for 14 days and were held for an additional 28 days after cessation of dosing to assess recovery from any potential drug-induced changes. The study was conducted under GLP guidelines and included comprehensive examinations of clinical signs, body weight, clinical pathology parameters, ophthalmologic examinations, ECG recordings and analyses of plasma for bioanalytical measurement of drug levels at appropriate intervals during the study. At the termination of the dosing phase and at the termination of the recovery phase, all dogs were subjected to a complete post-mortem examination including gross examination of major organs and histologic examination of an extensive list of tissues. Additional sections of brain were obtained from cerebrum, cerebellus, brain stem and spinal cord and examined histologically to evaluate potential effects on brain histopathology. In addition, these sections were examined with immunohistochemical stains for GFAP for evidence of gliosis and Calbindin for a more comprehensive examination of cerebellar Purkinje cells.

[4] = test system: healthy, drug-free male volunteers; assay: Safety and tolerability of noribogaine in healthy volunteers; format: in vivo, human
Description: Safety and tolerability of noribogaine were tested in the group of volunteers from Example 9. […] Safety evaluations included clinical monitoring, recording of adverse events (AEs), safety laboratory tests, vital signs, ECG telemetry from −2 h to 6 h after dosing, and 12-lead electrocardiograms (ECGs) up to 216 hours post-dosing.

[5] = test system: opioid-dependent participants; assay: Time to resumption of opioid substitution treatment (OST) and opiate withdrawal scales; format: in vivo, human
Description: Three cohorts of nine (9) subjects (6 administered noribogaine and 3 administered placebo in each cohort) were evaluated for tolerability, pharmacokinetics, and efficacy. Cohort 1 received a single dose of 60 mg noribogaine or placebo. Cohort 2 received a single dose of 120 mg noribogaine or placebo. Cohort 3 received a single dose of 180 mg noribogaine or placebo. […] Headaches were frequent in the placebo and 60 mg noribogaine treatment groups, but were attenuated in the 120 mg and 180 mg dose groups.
Patients were evaluated based on the Clinical Opiate Withdrawal Scale (COWS), Subjective Opiate Withdrawal Scale (SOWS), and Objective Opiate Withdrawal Scale (OOWS) scoring systems over the period of time between administration of noribogaine (or placebo) until resumption of OST. These scales are outlined in Guidelines for the Psychosocially Assisted Pharmacological Treatment of Opioid Dependence, World Health Organization, Geneva (2009), Annex 10, which is incorporated herein by reference in its entirety. The scales measure the intensity of withdrawal symptoms, based on clinical, subjective, and objective indicia.

[6] = female, dog, plasma, po, 0.5 mg/kg, female dogs, Gr 2, 0.5 mg/kg, D1
[7] = female, dog, plasma, po, 0.5 mg/kg, female dogs, Gr 2, 0.5 mg/kg, D14
[8] = female, dog, plasma, po, 1 mg/kg, female dogs, Gr 3, 1.0 mg/kg, D1
[9] = female, dog, plasma, po, 1 mg/kg, female dogs, Gr 3, 1.0 mg/kg, D14
[10] = female, dog, plasma, po, 5 mg/kg, female dogs, Gr 4, 5.0 mg/kg, D1
[11] = female, dog, plasma, po, 5 mg/kg, female dogs, Gr 4, 5.0 mg/kg, D14
[12] = male, dog, plasma, po, 0.5 mg/kg, male dogs, Gr 2, 0.5 mg/kg, D1
[13] = male, dog, plasma, po, 0.5 mg/kg, male dogs, Gr 2, 0.5 mg/kg, D14
[14] = male, dog, plasma, po, 1 mg/kg, male dogs, Gr 3, 1.0 mg/kg, D1
[15] = male, dog, plasma, po, 1 mg/kg, male dogs, Gr 3, 1.0 mg/kg, D14
[16] = male, dog, plasma, po, 5 mg/kg, male dogs, Gr 4, 5.0 mg/kg, D1
[17] = male, dog, plasma, po, 5 mg/kg, male dogs, Gr 4, 5.0 mg/kg, D14

CC[C@H]1CC2C[C@H]3c4[nH]c5ccc(O)cc5c4CCN(C2)C13 [noribogaine]
Pupillary constriction [1]: no evidence of pupillary constriction
Findings at the NOAEL dose (dogs; 5 mg/kg): only transient reduction in food consumption in one dog
Clinical signs (dogs; 10 mg/kg): Convulsions and other CNS-related clinical signs
Onset of clinical signs after dosing (dogs; 10 mg/kg): 20 min
Mortality (dogs; oral doses of 5 (n=2) or 10 (n=2) mg/kg): no mortality occurred
NOAEL [2]: 5 mg/kg
Cmax ([3]; female dogs, Gr 2, 0.5 mg/kg, D1): 25.3 ng/mL
Cmax ([3]; female dogs, Gr 2, 0.5 mg/kg, D14): 29.8 ng/mL
Cmax ([3]; female dogs, Gr 3, 1.0 mg/kg, D1): 68.5 ng/mL
Cmax ([3]; female dogs, Gr 3, 1.0 mg/kg, D14): 74.1 ng/mL
Cmax ([3]; female dogs, Gr 4, 5.0 mg/kg, D1): 691 ng/mL
Cmax ([3]; female dogs, Gr 4, 5.0 mg/kg, D14): 683 ng/mL
AUC(0-inf) [3, 6]: 44.9 ng·h/mL
Tmax [3, 6]: 0.5 h
half-life [3, 6]: 1 h
AUC(0-t) ([3]; female, dog, plasma, po, 0.5 mg/kg, female dogs, Gr 2, 0.5 mg/kg, D1, read-out: AUC0-24 h): 40.4 ng·h/mL
AUC(0-t) ([3]; female, dog, plasma, po, 0.5 mg/kg, female dogs, Gr 2, 0.5 mg/kg, D1, read-out: AUC0-last): 31.5 ng·h/mL
AUC(0-inf) [3, 7]: 45.7 ng·h/mL
Tmax [3, 7]: 1 h
half-life [3, 7]: 1.1 h
AUC(0-t) ([3]; female, dog, plasma, po, 0.5 mg/kg, female dogs, Gr 2, 0.5 mg/kg, D14, read-out: AUC0-24 h): 55 ng·h/mL
AUC(0-t) ([3]; female, dog, plasma, po, 0.5 mg/kg, female dogs, Gr 2, 0.5 mg/kg, D14, read-out: AUC0-last): 35.4 ng·h/mL
AUC(0-inf) [3, 8]: 165 ng·h/mL
Tmax [3, 8]: 0.8 h
half-life [3, 8]: 1.4 h
AUC(0-t) ([3]; female, dog, plasma, po, 1 mg/kg, female dogs, Gr 3, 1.0 mg/kg, D1, read-out: AUC0-24 h): 176 ng·h/mL
AUC(0-t) ([3]; female, dog, plasma, po, 1 mg/kg, female dogs, Gr 3, 1.0 mg/kg, D1, read-out: AUC0-last): 149 ng·h/mL
AUC(0-inf) [3, 9]: 197 ng·h/mL
Tmax [3, 9]: 0.5 h
half-life [3, 9]: 1.6 h
AUC(0-t) ([3]; female, dog, plasma, po, 1 mg/kg, female dogs, Gr 3, 1.0 mg/kg, D14, read-out: AUC0-24 h): 204 ng·h/mL
AUC(0-t) ([3]; female, dog, plasma, po, 1 mg/kg, female dogs, Gr 3, 1.0 mg/kg, D14, read-out: AUC0-last): 169 ng·h/mL
AUC(0-inf) [3, 10]: 3430 ng·h/mL
Tmax [3, 10]: 0.6 h
half-life [3, 10]: 4.3 h
AUC(0-t) ([3]; female, dog, plasma, po, 5 mg/kg, female dogs, Gr 4, 5.0 mg/kg, D1, read-out: AUC0-24 h): 3370 ng·h/mL
AUC(0-t) ([3]; female, dog, plasma, po, 5 mg/kg, female dogs, Gr 4, 5.0 mg/kg, D1, read-out: AUC0-last): 3370 ng·h/mL
AUC(0-inf) [3, 11]: 6280 ng·h/mL
half-life [3, 11]: 5.7 h
AUC(0-t) ([3]; female, dog, plasma, po, 5 mg/kg, female dogs, Gr 4, 5.0 mg/kg, D14, read-out: AUC0-24 h): 5950 ng·h/mL
AUC(0-t) ([3]; female, dog, plasma, po, 5 mg/kg, female dogs, Gr 4, 5.0 mg/kg, D14, read-out: AUC0-last): 5950 ng·h/mL
AUC(0-inf) [3, 12]: 67.8 ng·h/mL
Tmax [3, 12]: 0.7 h
half-life [3, 12]: 1.3 h
AUC(0-t) ([3]; male, dog, plasma, po, 0.5 mg/kg, male dogs, Gr 2, 0.5 mg/kg, D1, read-out: AUC0-24 h): 59.7 ng·h/mL
AUC(0-t) ([3]; male, dog, plasma, po, 0.5 mg/kg, male dogs, Gr 2, 0.5 mg/kg, D1, read-out: AUC0-last): 46.6 ng·h/mL
Cmax ([3]; male, dog, plasma, po, 0.5 mg/kg, male dogs, Gr 2, 0.5 mg/kg, D1, read-out: Cmax): 28.8 ng/mL
AUC(0-inf) [3, 13]: 68.2 ng·h/mL
Tmax [3, 13]: 0.7 h
half-life [3, 13]: 1.3 h
AUC(0-t) ([3]; male, dog, plasma, po, 0.5 mg/kg, male dogs, Gr 2, 0.5 mg/kg, D14, read-out: AUC0-24 h): 64.5 ng·h/mL
AUC(0-t) ([3]; male, dog, plasma, po, 0.5 mg/kg, male dogs, Gr 2, 0.5 mg/kg, D14, read-out: AUC0-last): 53.2 ng·h/mL
Cmax ([3]; male, dog, plasma, po, 0.5 mg/kg, male dogs, Gr 2, 0.5 mg/kg, D14, read-out: Cmax): 29.4 ng/mL
AUC(0-inf) [3, 14]: 121 ng·h/mL
Tmax [3, 14]: 0.9 h
half-life [3, 14]: 1.2 h
AUC(0-t) ([3]; male, dog, plasma, po, 1 mg/kg, male dogs, Gr 3, 1.0 mg/kg, D1, read-out: AUC0-24 h): 120 ng·h/mL
AUC(0-t) ([3]; male, dog, plasma, po, 1 mg/kg, male dogs, Gr 3, 1.0 mg/kg, D1, read-out: AUC0-last): 102 ng·h/mL
Cmax ([3]; male, dog, plasma, po, 1 mg/kg, male dogs, Gr 3, 1.0 mg/kg, D1, read-out: Cmax): 58.6 ng/mL
AUC(0-inf) [3, 15]: 196 ng·h/mL
Tmax [3, 15]: 0.8 h
half-life [3, 15]: 1.8 h
AUC(0-t) ([3]; male, dog, plasma, po, 1 mg/kg, male dogs, Gr 3, 1.0 mg/kg, D14, read-out: AUC0-24 h): 210 ng·h/mL
AUC(0-t) ([3]; male, dog, plasma, po, 1 mg/kg, male dogs, Gr 3, 1.0 mg/kg, D14, read-out: AUC0-last): 172 ng·h/mL
Cmax ([3]; male, dog, plasma, po, 1 mg/kg, male dogs, Gr 3, 1.0 mg/kg, D14, read-out: Cmax): 67.6 ng/mL
AUC(0-inf) [3, 16]: 3630 ng·h/mL
Tmax [3, 16]: 0.6 h
half-life [3, 16]: 4.7 h
AUC(0-t) ([3]; male, dog, plasma, po, 5 mg/kg, male dogs, Gr 4, 5.0 mg/kg, D1, read-out: AUC0-24 h): 3520 ng·h/mL
AUC(0-t) ([3]; male, dog, plasma, po, 5 mg/kg, male dogs, Gr 4, 5.0 mg/kg, D1, read-out: AUC0-last): 3520 ng·h/mL
Cmax ([3]; male, dog, plasma, po, 5 mg/kg, male dogs, Gr 4, 5.0 mg/kg, D1, read-out: Cmax): 693 ng/mL
AUC(0-inf) [3, 17]: 6960 ng·h/mL
Tmax [3, 17]: 0.9 h
half-life [3, 17]: 6.5 h
AUC(0-t) ([3]; male, dog, plasma, po, 5 mg/kg, male dogs, Gr 4, 5.0 mg/kg, D14, read-out: AUC0-24 h): 6400 ng·h/mL
AUC(0-t) ([3]; male, dog, plasma, po, 5 mg/kg, male dogs, Gr 4, 5.0 mg/kg, D14, read-out: AUC0-last): 6400 ng·h/mL
Cmax ([3]; male, dog, plasma, po, 5 mg/kg, male dogs, Gr 4, 5.0 mg/kg, D14, read-out: Cmax): 716 ng/mL
Adverse events reported ([4]; 3 mg dose group): five adverse events were reported by two subjects
Adverse events reported ([4]; 10 mg dose group): one adverse event was reported by single subjects
Single increase in QTcF (one subject) ([4]; 10 mg, 24 hours post-dosing): > 60 ms
Adverse events reported ([4]; 30 mg dose group): one adverse event was reported by single subjects
Oximetry, capnography, respiratory rate ([4]; 3-60 mg single oral dose): no changes in oximetry or capnography, or changes in respiratory rate
QTcF values >500 msec ([4]; 3-60 mg single oral dose): no QTcF values>500 msec at any time
Vital signs and safety laboratory tests ([4]; 3-60 mg single oral dose): no changes in vital signs or safety laboratory tests of note
Adverse events, Mild ([4]; Dose 3 mg): Back pain; also recorded: Dizziness; also recorded: Epistaxis; also recorded: Headache
Adverse events, Moderate ([4]; Dose 3 mg): Headache
Adverse events, Mild ([4]; Dose 10 mg): Headache
Adverse events, Mild ([4]; Dose 30 mg): Headache
Withdrawal symptoms (COWS, OOWS, SOWS, first six hours) ([5]; 120 mg): generally experienced fewer withdrawal symptoms than the other patients
Average time to resumption of opioids ([5]; single 120 mg dose): greater than 20 hours

From patent publication US20150258107A1, “METHODS AND COMPOSITIONS FOR TREATING DEPRESSION” (DemeRx, Inc., priority 2014, published 2015)
